Measured values published in ChEMBL document CHEMBL1201862, “PubChem BioAssay data set” (2004).
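In this assay, cells in 96-well plates receive the compound at five concentrations for 48 hours. Endpoints are linearly interpolated between the surrounding concentrations. GI50: concentration for 50% inhibition of growth.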 Activity calls are given as the source filed them. Rule as the data show it: active = GI50 up to about 1.1 µM and inactive = higher.

Columns and labels:
Experiment in all cases: NCI tumour cell line growth inhibition, 48 h
[1] = tested on: 786-0
[2] = tested on: COLO 205
[3] = tested on: HCC 2998
[4] = tested on: Hs-578T
[5] = tested on: KM12
[6] = tested on: M14
[7] = tested on: MDA-MB-435
[8] = tested on: MDA-N
[9] = tested on: OVCAR-5
[10] = tested on: OVCAR-8
[11] = tested on: RPMI-8226
[12] = tested on: SF-268
[13] = tested on: SK-MEL-28
[14] = tested on: SNB-19
[15] = tested on: SNB-75
[16] = tested on: SW-620
[17] = tested on: T47D
[18] = tested on: TK-10
[19] = tested on: UACC-257
[20] = tested on: MCF7

Measured: GI50

Oc1cccc(Nc2cc(O)nc(O)n2)c1
inactive: [1] > 100 µM | [2] > 100 µM | [3] > 100 µM | [4] > 100 µM | [5] > 100 µM | [6] > 100 µM | [7] > 100 µM | [8] > 100 µM | [9] > 100 µM | [10] > 100 µM | [11] > 100 µM | [12] > 100 µM | [13] > 100 µM | [14] > 100 µM | [15] > 100 µM | [16] > 100 µM | [17] > 100 µM | [18] > 100 µM | [19] > 100 µM

N#CCC(=O)c1cc(OCc2cc(OCc3ccc(Br)cc3)cc(OCc3ccc(Br)cc3)c2)cc(OCc2cc(OCc3ccc(Br)cc3)cc(OCc3ccc(Br)cc3)c2)c1
inactive: [1] > 100 µM | [2] > 100 µM | [3] > 100 µM | [5] > 100 µM | [6] > 100 µM | [20] > 100 µM | [7] > 100 µM | [8] > 100 µM | [9] > 100 µM | [11] > 100 µM | [12] > 100 µM | [13] > 100 µM | [14] > 100 µM | [15] > 100 µM | [17] > 100 µM | [18] > 100 µM | [19] > 100 µM

Cc1cc2c(C(C)C)c(O)c(O)c(/C=N/c3cc(C(F)(F)F)ccc3Cl)c2c(O)c1-c1c(C)cc2c(C(C)C)c(O)c(O)c(/C=N/c3cc(C(F)(F)F)ccc3Cl)c2c1O
inactive: [1] 50.6 µM | [2] 31.2 µM | [3] 62.7 µM | [4] > 100 µM | [5] 30.1 µM | [6] 75.3 µM | [20] 27.7 µM | [7] 32.6 µM | [9] 77.3 µM | [10] 44.5 µM | [11] 50.7 µM | [12] 37.2 µM | [13] 38.1 µM | [14] 28.1 µM | [16] 58.2 µM | [17] 29.6 µM | [18] 60.7 µM | [19] 37.4 µM

CC1=C([S+]([O-])c2ccc(C)cc2)CCC2(CCCCO2)O1 (stereo not given)
inactive: [1] > 100 µM | [2] > 100 µM | [3] > 100 µM | [4] > 100 µM | [5] > 100 µM | [20] > 100 µM | [7] > 100 µM | [9] > 100 µM | [10] > 100 µM | [11] 66.5 µM | [12] > 100 µM | [13] > 100 µM | [14] > 100 µM | [15] > 100 µM | [16] > 100 µM | [17] > 100 µM | [18] > 100 µM | [19] > 100 µM

N#Cc1nc(Cc2ccccc2)oc1N
inactive: [1] > 100 µM | [2] > 100 µM | [4] 25.2 µM | [5] > 100 µM | [6] > 100 µM | [20] > 100 µM | [7] > 100 µM | [8] > 100 µM | [9] > 100 µM | [11] 16.9 µM | [12] > 100 µM | [13] > 100 µM | [14] 38.7 µM | [16] > 100 µM | [17] > 100 µM | [18] > 100 µM | [19] > 100 µM

COc1ccc(/C=C2\N=C(SC)N(CN3CCOCC3)C2=O)cc1
inactive: [1] 70.6 µM | [2] 36.3 µM | [4] 59.2 µM | [5] 78.3 µM | [6] 55 µM | [20] 16 µM | [7] 74.8 µM | [8] 71.1 µM | [9] > 100 µM | [10] 48.2 µM | [11] 24.8 µM | [12] 48 µM | [13] > 100 µM | [14] 84.5 µM | [15] 60.7 µM | [16] 22 µM | [18] 56.5 µM

Cc1cc(OP2(=O)NCc3ncccc3O2)ccc1Cl (stereo not given)
inactive: [1] > 100 µM | [2] > 100 µM | [3] 40.6 µM | [5] 58.5 µM | [6] > 100 µM | [20] > 100 µM | [7] > 100 µM | [8] > 100 µM | [9] > 100 µM | [10] > 100 µM | [11] > 100 µM | [13] > 100 µM | [14] > 100 µM | [15] > 100 µM | [16] > 100 µM | [17] > 100 µM | [19] > 100 µM

CC(C)(C)c1ccc2c(c1)C#Cc1cc(C(C)(C)C)ccc1OCCCO2
inactive: [1] > 100 µM | [2] > 100 µM | [4] > 100 µM | [5] > 100 µM | [6] > 100 µM | [20] > 100 µM | [7] > 100 µM | [8] > 100 µM | [9] > 100 µM | [10] > 100 µM | [11] > 100 µM | [12] > 100 µM | [13] > 100 µM | [14] > 100 µM | [16] > 100 µM | [17] > 100 µM | [18] > 100 µM | [19] > 100 µM

Cc1ccc(C)c(NC(=O)C(=O)C2C(=O)C3=C(CC2(C)C)Nc2ccccc2S3)c1 (stereo not given)
inactive: [1] 61.8 µM | [2] > 100 µM | [3] > 100 µM | [4] 69.2 µM | [5] > 100 µM | [6] > 100 µM | [20] > 100 µM | [7] > 100 µM | [8] > 100 µM | [9] > 100 µM | [10] 33.8 µM | [12] 62.7 µM | [13] > 100 µM | [14] > 100 µM | [15] 29.4 µM | [16] > 100 µM | [18] > 100 µM | [19] > 100 µM

CCOC(=O)Cc1csc(N/C=C2/C(=O)Oc3ccccc3C2=O)n1
inactive: [1] 26.4 µM | [2] 44.7 µM | [4] 22 µM | [5] 27.8 µM | [6] 23.8 µM | [20] 40.8 µM | [7] 23.9 µM | [9] 37.4 µM | [10] 13.1 µM | [11] 18.6 µM | [12] 24.8 µM | [13] 25.1 µM | [14] 24.2 µM | [15] 10.9 µM | [16] 21.6 µM | [18] 24.7 µM | [19] 20.8 µM

CCN(CC)CCNc1ccc(/N=N/c2ccc(S(N)(=O)=O)cc2)c2ccccc12
inactive: [1] 4.62 µM | [2] 4.24 µM | [3] 8.75 µM | [4] 15.5 µM | [5] 6.01 µM | [6] 3.72 µM | [20] 6.73 µM | [7] 7.35 µM | [9] 23 µM | [10] 5.82 µM | [11] 3.37 µM | [12] 10.1 µM | [13] 11.5 µM | [14] 11.9 µM | [15] 10.3 µM | [16] 3.3 µM | [17] 2.55 µM | [18] 19.1 µM | [19] 14.9 µM
